Earlier results as cited in PMC5473336 (Journal of medicinal chemistry, 2016).
“Also recorded” adds a separate entry of the source. Like-named read-outs stand apart in the source and are kept apart here.

How the values were obtained:
[1] = tested on: RAD51; conditions: cited from earlier work
[2] = tested on: human cells; conditions: following irradiation; cited from earlier work
[3] = tested on: RAD51; conditions: cited from earlier work; remark: listed apart in the source

C[C@@]12CCC(=O)c3coc(c31)C(=O)c1cc3c(cc12)C(=O)C=CC3=O [halenaquinone]
RAD51 D-loop activity (in words) [1]: specifically inhibit D-loop formation
RAD51 D-loop activity (in words) ([1]; listed as Halenaquinone): strongly inhibit
RAD51 foci at DSB sites in cells (in words) [2]: inhibit the formation of RAD51 foci; also recorded: reduces the subnuclear appearance of RAD51 foci
RAD51 ssDNA binding activity (in words) [3]: sparing
